Several values for one entry are separate records, joined by “and”; a condition that tells them apart may be missing. Equal entries are not always repeated. Marks after values point to notes of the source that are not given here. Non-standard residues stand in square brackets, D forms with d. Residues, ends and D or L forms follow the SMILES beside them. *: point of attachment. Asu = N[C@@H](CCCCCC(=O)O)C(=O)O; NHOH = ON*
Key:
HDAC1 [1] = target: T1, HDAC1 (Homo sapiens, UniProt Q13547); experiment: Recombinant HDAC µSPOT microarray binding assay;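 note: slides with spotted peptides incubated with six HDAC concentrations in HEPES buffer pH 7.4, spot intensities fitted by four-parameter logistic, EC50 as enzyme concentration giving half-maximal binding signal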
T1 construct: HDAC1 (full length, C-terminal His tag, C-terminal FLAG tag, BPS Bioscience, cat. #: 50051); FLAG (C); purchased BPS Bioscience 50051

HDAC3/NCoR2 [2] = target: T2, HDAC3/NCoR2 (Homo sapiens, UniProt O15379); experiment: Recombinant HDAC µSPOT microarray binding assay;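 note: peptide spots on cellulose slides incubated with rising HDAC enzyme concentrations, imaged together, four-parameter logistic fit, EC50 is enzyme concentration giving half-maximal binding signal, two experiments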
T2 construct: HDAC3/NCoR2 (full length, C-terminal His tag, NCoR2 N-terminal GST tag); purchased BPS Bioscience 50003

HDAC1 [3] = target: T1, HDAC1; experiment: HDAC inhibition assay (fluorogenic, Ac-Leu-Gly-Lys(Ac)-AMC); assay type: biochemical; conditions: for HDAC1 dose-response data (relative enzyme activity), Fig. 6 + S. Fig. 10: duplicate columns
HDAC2 = target: T3, HDAC2 (Homo sapiens, UniProt Q92769); experiment: as above; assay type: biochemical; conditions: for HDAC2 dose-response data (relative enzyme activity), Fig. 6 + S. Fig. 10: duplicate columns
T3 construct: HDAC2 (full length, C-terminal His tag, BPS Bioscience, cat. #: 50002); purchased BPS Bioscience 50002

HDAC3/NCoR2 [4] = target: T2, HDAC3/NCoR2; experiment: as above; assay type: biochemical; conditions: for HDAC3 dose-response data (relative enzyme activity), Fig. 6 + S. Fig. 10: duplicate columns
HDAC8 = target: T4, HDAC8 (Homo sapiens, UniProt Q9BY41); experiment: HDAC inhibition assay (fluorogenic, Ac-Leu-Gly-Lys(Tfa)-AMC); assay type: biochemical; conditions: for HDAC8 dose-response data (relative enzyme activity, replicate values), Fig. 6 + S. Fig. 10: two replicate columns per inhibitor; for HDAC8 dose-response data (relative enzyme activity), Fig. 6 + S. Fig. 10: duplicate columns
T4 construct: HDAC8 (full length, C-terminal His tag, BPS Bioscience, cat. #: 50008); purchased BPS Bioscience 50008
T4 sequence (Q9BY41 1-377): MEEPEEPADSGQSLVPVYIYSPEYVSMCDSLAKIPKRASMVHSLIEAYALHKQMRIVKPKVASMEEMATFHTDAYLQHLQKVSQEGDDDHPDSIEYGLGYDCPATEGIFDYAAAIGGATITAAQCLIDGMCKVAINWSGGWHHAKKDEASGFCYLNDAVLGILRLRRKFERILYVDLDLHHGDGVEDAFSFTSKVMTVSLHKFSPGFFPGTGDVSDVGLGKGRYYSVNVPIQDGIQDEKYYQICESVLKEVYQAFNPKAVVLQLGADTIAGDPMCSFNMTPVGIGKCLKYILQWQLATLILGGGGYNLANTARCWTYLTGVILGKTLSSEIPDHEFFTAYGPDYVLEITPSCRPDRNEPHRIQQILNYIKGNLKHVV

HDAC6 = target: T5, HDAC6 (Homo sapiens, UniProt Q9UBN7); experiment: HDAC inhibition assay (fluorogenic, Ac-Leu-Gly-Lys(Ac)-AMC); assay type: biochemical; conditions: for residual enzymatic activity relative to control wells: HDAC6, replicates
T5 construct: HDAC6 (full length, BPS Bioscience, cat. #: 50056); purchased BPS Bioscience 50056
T5 sequence (Q9UBN7 1-1215): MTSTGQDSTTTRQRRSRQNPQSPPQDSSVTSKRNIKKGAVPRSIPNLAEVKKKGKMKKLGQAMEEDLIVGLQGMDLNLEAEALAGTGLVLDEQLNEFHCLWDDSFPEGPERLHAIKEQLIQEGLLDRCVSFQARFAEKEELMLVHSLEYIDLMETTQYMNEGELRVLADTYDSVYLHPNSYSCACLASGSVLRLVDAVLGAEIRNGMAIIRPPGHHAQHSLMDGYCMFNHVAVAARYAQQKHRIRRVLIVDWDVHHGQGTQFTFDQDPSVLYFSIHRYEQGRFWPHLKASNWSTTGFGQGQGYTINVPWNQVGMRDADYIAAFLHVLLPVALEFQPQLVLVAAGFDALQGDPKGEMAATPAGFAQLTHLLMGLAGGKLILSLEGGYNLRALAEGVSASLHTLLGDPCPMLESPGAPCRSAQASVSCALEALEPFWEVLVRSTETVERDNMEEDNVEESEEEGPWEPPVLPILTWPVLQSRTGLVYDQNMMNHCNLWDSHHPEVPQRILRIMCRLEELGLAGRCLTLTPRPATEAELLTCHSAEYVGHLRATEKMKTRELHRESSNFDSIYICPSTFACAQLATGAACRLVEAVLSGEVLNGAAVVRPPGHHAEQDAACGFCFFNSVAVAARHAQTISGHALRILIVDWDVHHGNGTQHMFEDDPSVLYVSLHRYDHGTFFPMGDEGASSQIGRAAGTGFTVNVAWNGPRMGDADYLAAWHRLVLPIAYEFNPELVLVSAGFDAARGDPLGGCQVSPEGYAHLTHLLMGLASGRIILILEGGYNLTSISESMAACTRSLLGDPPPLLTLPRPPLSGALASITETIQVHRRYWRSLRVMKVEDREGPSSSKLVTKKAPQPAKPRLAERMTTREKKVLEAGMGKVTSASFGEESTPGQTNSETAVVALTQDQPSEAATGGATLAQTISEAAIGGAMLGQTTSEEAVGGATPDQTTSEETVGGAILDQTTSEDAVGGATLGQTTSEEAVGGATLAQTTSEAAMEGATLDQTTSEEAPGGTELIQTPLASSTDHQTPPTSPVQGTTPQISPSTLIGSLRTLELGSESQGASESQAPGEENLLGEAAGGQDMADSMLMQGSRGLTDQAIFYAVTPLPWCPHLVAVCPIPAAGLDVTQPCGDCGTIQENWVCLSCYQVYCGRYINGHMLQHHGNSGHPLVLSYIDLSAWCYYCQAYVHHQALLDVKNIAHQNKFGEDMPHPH

HDAC4 = target: T6, HDAC4 (Homo sapiens, UniProt P56524); experiment: HDAC inhibition assay (fluorogenic, Ac-Leu-Gly-Lys(Tfa)-AMC); assay type: biochemical; conditions: 2 internal replicates
T6 construct: purchased BPS Bioscience 50004

[5] = log[inhibitor(M)] -10,5850266520292*, whole line marked with asterisks

T1 sequence (Q13547 whole entry): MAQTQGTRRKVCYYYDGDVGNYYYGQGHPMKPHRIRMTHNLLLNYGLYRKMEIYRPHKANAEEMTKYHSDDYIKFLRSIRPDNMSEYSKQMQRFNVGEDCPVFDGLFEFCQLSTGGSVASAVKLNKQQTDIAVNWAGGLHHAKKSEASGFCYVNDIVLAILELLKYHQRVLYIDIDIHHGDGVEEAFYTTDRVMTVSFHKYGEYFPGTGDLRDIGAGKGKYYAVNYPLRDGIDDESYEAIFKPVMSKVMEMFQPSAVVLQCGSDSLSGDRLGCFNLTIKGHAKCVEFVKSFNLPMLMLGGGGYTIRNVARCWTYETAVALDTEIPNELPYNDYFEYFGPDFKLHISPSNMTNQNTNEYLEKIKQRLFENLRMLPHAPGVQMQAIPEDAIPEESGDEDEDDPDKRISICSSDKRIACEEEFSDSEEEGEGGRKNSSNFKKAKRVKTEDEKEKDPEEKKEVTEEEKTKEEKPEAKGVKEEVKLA
T2 sequence (O15379 whole entry): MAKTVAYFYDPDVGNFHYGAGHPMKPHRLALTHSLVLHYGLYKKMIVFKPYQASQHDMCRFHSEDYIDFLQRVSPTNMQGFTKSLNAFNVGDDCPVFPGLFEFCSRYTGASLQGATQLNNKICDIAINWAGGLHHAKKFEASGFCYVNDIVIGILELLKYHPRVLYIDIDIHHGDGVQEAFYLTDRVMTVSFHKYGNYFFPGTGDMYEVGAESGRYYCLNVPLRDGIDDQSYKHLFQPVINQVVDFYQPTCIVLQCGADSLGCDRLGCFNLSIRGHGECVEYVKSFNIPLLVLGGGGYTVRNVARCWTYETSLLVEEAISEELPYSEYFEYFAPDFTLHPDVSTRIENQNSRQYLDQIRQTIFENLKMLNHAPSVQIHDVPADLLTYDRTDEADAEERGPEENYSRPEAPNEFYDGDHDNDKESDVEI
T2 sequence (Q9Y618 389-480 partner limits assumed): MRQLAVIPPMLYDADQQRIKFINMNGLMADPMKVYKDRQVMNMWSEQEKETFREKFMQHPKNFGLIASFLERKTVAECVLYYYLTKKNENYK
T6 sequence (P56524 627-1084): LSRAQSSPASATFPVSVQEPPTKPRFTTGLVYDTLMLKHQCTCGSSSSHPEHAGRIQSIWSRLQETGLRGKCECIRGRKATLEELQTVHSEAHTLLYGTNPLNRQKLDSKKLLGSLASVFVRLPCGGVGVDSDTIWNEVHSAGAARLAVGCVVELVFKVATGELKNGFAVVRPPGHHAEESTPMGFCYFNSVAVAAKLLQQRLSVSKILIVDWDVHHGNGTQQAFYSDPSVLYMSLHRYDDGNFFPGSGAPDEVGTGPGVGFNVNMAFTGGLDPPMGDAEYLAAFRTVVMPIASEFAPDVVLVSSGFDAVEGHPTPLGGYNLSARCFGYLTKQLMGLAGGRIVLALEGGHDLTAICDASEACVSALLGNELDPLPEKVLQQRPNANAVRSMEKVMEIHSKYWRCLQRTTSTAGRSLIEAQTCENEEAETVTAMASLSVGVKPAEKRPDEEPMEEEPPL
T3 sequence (Q92769 whole entry): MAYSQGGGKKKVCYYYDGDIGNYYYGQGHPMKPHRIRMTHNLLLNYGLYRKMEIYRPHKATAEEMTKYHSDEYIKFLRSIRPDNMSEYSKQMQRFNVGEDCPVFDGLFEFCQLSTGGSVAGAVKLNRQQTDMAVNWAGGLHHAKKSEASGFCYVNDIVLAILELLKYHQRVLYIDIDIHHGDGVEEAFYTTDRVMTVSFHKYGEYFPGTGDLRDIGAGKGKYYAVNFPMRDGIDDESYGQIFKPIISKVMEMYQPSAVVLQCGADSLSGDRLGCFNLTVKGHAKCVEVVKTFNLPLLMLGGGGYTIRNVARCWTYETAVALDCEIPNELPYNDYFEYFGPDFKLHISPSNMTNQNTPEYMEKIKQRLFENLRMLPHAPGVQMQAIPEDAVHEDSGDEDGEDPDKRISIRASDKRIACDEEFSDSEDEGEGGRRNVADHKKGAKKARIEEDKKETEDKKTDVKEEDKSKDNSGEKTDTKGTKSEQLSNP

CC(=O)N[C@@H](C)C(=O)N[C@H](C(=O)NCC(=O)NCC(=O)N[C@H](C(=O)N[C@@H](CCCCCC(=O)NO)C(=O)N[C@@H](CCCCN)C(=O)N1CCC[C@H]1C(=O)N[C@@H](Cc1c[nH]cn1)C(=O)N[C@@H](CCCNC(=N)N)C(=O)N[C@@H](Cc1ccc(O)cc1)C(=O)N[C@@H](CCCNC(=N)N)C(=O)N1CCC[C@H]1C(=O)NCC(=O)N[C@H](C(=O)N[C@H](C(=O)N[C@@H](Cc1c[nH]c2ccccc12)C(N)=O)C(C)C)[C@@H](C)O)C(C)C)[C@@H](C)O [15a] (Ac-ATGGV[Asu](NHOH)KPHRYRPGTVW-NH2)
EC50 (HDAC1 [1]): 5.01 nM
EC50 (HDAC3/NCoR2 [2]): 2.4 nM
Ki (HDAC1 [3]): 70 ± 1 nM
HDAC1 dose-response data (relative enzyme activity), Fig. 6 + S. Fig. 10 (HDAC1 [3]; log[inhibitor(M)] -4.30103): 2.2617 and 2.685
HDAC1 dose-response data (relative enzyme activity), Fig. 6 + S. Fig. 10 (HDAC1 [3]; log[inhibitor(M)] -6.39794): 54.2155 and 43.2283
HDAC1 dose-response data (relative enzyme activity), Fig. 6 + S. Fig. 10 (HDAC1 [3]; log[inhibitor(M)] -7.09691): 91.0731 and 84.0543
HDAC1 dose-response data (relative enzyme activity), Fig. 6 + S. Fig. 10 (HDAC1 [3]; log[inhibitor(M)] -7.79588): 111.87 and 112.408
HDAC1 dose-response data (relative enzyme activity), Fig. 6 + S. Fig. 10 (HDAC1 [3]; log[inhibitor(M)] -8.49485): 111.243 and 114.065
HDAC1 dose-response data (relative enzyme activity), Fig. 6 + S. Fig. 10 (HDAC1 [3]; log[inhibitor(M)] -9.19382): 105.717 and 111.571
HDAC1 dose-response data (relative enzyme activity), Fig. 6 + S. Fig. 10 (HDAC1 [3]; log[inhibitor(M)] -9.89279): 103.869 and 106.196
HDAC1 dose-response data (relative enzyme activity), Fig. 6 + S. Fig. 10 (HDAC1 [3]; [5]): 100,2561* and 100,875*
HDAC2 dose-response data (relative enzyme activity), Fig. 6 + S. Fig. 10 (HDAC2; log[inhibitor(M)] -5): 7.156 and 8.696
HDAC2 dose-response data (relative enzyme activity), Fig. 6 + S. Fig. 10 (HDAC2; log[inhibitor(M)] -5.69897): 27.5449 and 22.7201
HDAC2 dose-response data (relative enzyme activity), Fig. 6 + S. Fig. 10 (HDAC2; log[inhibitor(M)] -7.79588): 107.892 and 100.231
HDAC2 dose-response data (relative enzyme activity), Fig. 6 + S. Fig. 10 (HDAC2; [5]): 104,1863* and 103,2461*
Ki (HDAC2; resynthesized peptide in solution, Cheng-Prusoff, n = 2): 70.2 ± 0.5 nM
Ki (HDAC3/NCoR2 [4]): 21.7 ± 0.2 nM
HDAC3 dose-response data (relative enzyme activity), Fig. 6 + S. Fig. 10 (HDAC3/NCoR2 [4]; log[inhibitor(M)] -4.30103): 0.4402 and 0.4708
HDAC3 dose-response data (relative enzyme activity), Fig. 6 + S. Fig. 10 (HDAC3/NCoR2 [4]; log[inhibitor(M)] -5): 1.6435 and 1.312
HDAC3 dose-response data (relative enzyme activity), Fig. 6 + S. Fig. 10 (HDAC3/NCoR2 [4]; log[inhibitor(M)] -5.69897): 7.236 and 5.348
HDAC3 dose-response data (relative enzyme activity), Fig. 6 + S. Fig. 10 (HDAC3/NCoR2 [4]; log[inhibitor(M)] -6.39794): 28.5726 and 19.4648
HDAC3 dose-response data (relative enzyme activity), Fig. 6 + S. Fig. 10 (HDAC3/NCoR2 [4]; log[inhibitor(M)] -7.09691): 64.2255 and 50.9194
HDAC3 dose-response data (relative enzyme activity), Fig. 6 + S. Fig. 10 (HDAC3/NCoR2 [4]; log[inhibitor(M)] -7.79588): 97.9959 and 83.1339
HDAC3 dose-response data (relative enzyme activity), Fig. 6 + S. Fig. 10 (HDAC3/NCoR2 [4]; log[inhibitor(M)] -8.49485): 112.173 and 97.0745
HDAC3 dose-response data (relative enzyme activity), Fig. 6 + S. Fig. 10 (HDAC3/NCoR2 [4]; log[inhibitor(M)] -9.19382): 112.635 and 104.337
HDAC3 dose-response data (relative enzyme activity), Fig. 6 + S. Fig. 10 (HDAC3/NCoR2 [4]; log[inhibitor(M)] -9.89279): 114.089 and 99.1792
Ki (HDAC8): 1680 ± 13 nM
HDAC8 dose-response data (relative enzyme activity, replicate values), Fig. 6 + S. Fig. 10 (HDAC8; Inhibitor conc [M] -8.49485 (log)): 104.092 and 106.342
HDAC8 dose-response data (relative enzyme activity, replicate values), Fig. 6 + S. Fig. 10 (HDAC8; Inhibitor conc [M] -9.19382 (log)): 107.088 and 104.012
HDAC8 dose-response data (relative enzyme activity, replicate values), Fig. 6 + S. Fig. 10 (HDAC8; Inhibitor conc [M] given as -7.09691 (log)): 97.5487 and 105.051
HDAC8 dose-response data (relative enzyme activity, replicate values), Fig. 6 + S. Fig. 10 (HDAC8; Inhibitor conc [M] given as -7.79588 (log)): 103.383 and 113.008
HDAC8 dose-response data (relative enzyme activity, replicate values), Fig. 6 + S. Fig. 10 (HDAC8; Inhibitor conc [M] given as -9.89279 (log)): 103.125 and 102.688
HDAC8 dose-response data (relative enzyme activity), Fig. 6 + S. Fig. 10 (HDAC8; Inhibitor conc [M] -4.30103): 7.884 and 8.121
HDAC8 dose-response data (relative enzyme activity), Fig. 6 + S. Fig. 10 (HDAC8; Inhibitor conc [M] -5): 24.6267 and 25.2578
HDAC8 dose-response data (relative enzyme activity), Fig. 6 + S. Fig. 10 (HDAC8; Inhibitor conc [M] -5.69897): 57.0341 and 59.1741
HDAC8 dose-response data (relative enzyme activity), Fig. 6 + S. Fig. 10 (HDAC8; Inhibitor conc [M] -6.39794): 87.2467 and 93.8953
residual enzymatic activity relative to control wells (HDAC6; log[inhibitor(M)] -4.30103): 3.78 and 1.49
residual enzymatic activity relative to control wells (HDAC6; log[inhibitor(M)] -5): 9.7 and 2.71
residual enzymatic activity relative to control wells (HDAC6; log[inhibitor(M)] -5.69897): 22.49 and 13.07
residual enzymatic activity relative to control wells (HDAC6; log[inhibitor(M)] -6.39794): 47.9 and 35.05
residual enzymatic activity relative to control wells (HDAC6; log[inhibitor(M)] -7.09691): 78.65 and 63.46
residual enzymatic activity relative to control wells (HDAC6; log[inhibitor(M)] -7.79588): 92.99 and 81.77
residual enzymatic activity relative to control wells (HDAC6; log[inhibitor(M)] -8.49485): 99.83 and 89.79
residual enzymatic activity relative to control wells (HDAC6; log[inhibitor(M)] -9.19382): 102.59 and 95.48
residual enzymatic activity relative to control wells (HDAC6; log[inhibitor(M)] -9.89279): 101.36 and 96.27
residual enzymatic activity relative to control wells (HDAC6; log[inhibitor(M)] -10.585): 101,22* and 96,07*
Ki (HDAC6; in solution): 114 ± 2 nM
residual enzymatic activity relative to control wells (HDAC4; inhibitor 5 µM): 108.47
remaining activity at 5 µM (HDAC4; inhibitor 5 µM, read-out: residual enzymatic activity relative to control wells): 98.7%
residual enzymatic activity relative to control wells (HDAC4; inhibitor 50 µM): 74.7
remaining activity at 50 µM (HDAC4; inhibitor 50 µM, read-out: residual enzymatic activity relative to control wells): 89.4%

— PMC7782793, “Hydroxamic acid-modified peptide microarrays for profiling isozyme-selective interactions and inhibition of histone deacetylases” (Nature Communications, 2021)
